In paper PMC6946680, “Modulation of brain cation-Cl^− cotransport via the SPAK kinase inhibitor ZT-1a” (Nature Communications, 2020):

Key:
Assay in all cases: Kinase profiling panel
Assay type in all cases: biochemical
ASK1 = tested on: ASK1
Procedure: (§1) Supplementary Table 2. ZT-1a kinase profiling data6.
(§2) ZT-1a was tested at 10 and 1 µM against a panel of 140 recombinant kinases in an enzymatic
(§3) activity-based assay performed by the International Centre for Kinase Profiling in the MRC
(§4) Protein Phosphorylation and Ubiquitylation Unit. Values represent % residual kinase activity

Aurora A = tested on: Aurora A
Procedure: as §1, §2, §3, §4

Aurora B = tested on: Aurora B
Procedure: as §1, §2, §3, §4

CAMKKb = tested on: CAMKKb
Procedure: as §1, §2, §3, §4

CDK2-Cyclin A = tested on: CDK2-Cyclin A
Procedure: as §1, §2, §3, §4

EPH-B2 = tested on: EPH-B2
Procedure: as §1, §2, §3, §4

FGF-R1 = tested on: FGF-R1
Procedure: as §1, §2, §3, §4

GSK3b = tested on: GSK3b
Procedure: as §1, §2, §3, §4

IGF-1R = tested on: IGF-1R
Procedure: as §1, §2, §3, §4

IKKe = tested on: IKKe
Procedure: as §1, §2, §3, §4

IRR = tested on: IRR
Procedure: as §1, §2, §3, §4

IR = tested on: IR
Procedure: as §1, §2, §3, §4

JNK3 = tested on: JNK3
Procedure: as §1, §2, §3, §4

LKB1 = tested on: LKB1
Procedure: as §1, §2, §3, §4

MAPKAP-K3 = tested on: MAPKAP-K3
Procedure: as §1, §2, §3, §4

MKK6 = tested on: MKK6
Procedure: as §1, §2, §3, §4

MLK1 = tested on: MLK1
Procedure: as §1, §2, §3, §4

MSK1 = tested on: MSK1
Procedure: as §1, §2, §3, §4

NUAK1 = tested on: NUAK1
Procedure: as §1, §2, §3, §4

PDK1 = tested on: PDK1
Procedure: as §1, §2, §3, §4

PIM1 = tested on: PIM1
Procedure: as §1, §2, §3, §4

PINK = tested on: PINK
Procedure: as §1, §2, §3, §4

SIK3 = tested on: SIK3
Procedure: as §1, §2, §3, §4

TBK1 = tested on: TBK1
Procedure: as §1, §2, §3, §4

TESK1 = tested on: TESK1
Procedure: as §1, §2, §3, §4

TGFBR1 = tested on: TGFBR1
Procedure: as §1, §2, §3, §4

TSSK1 = tested on: TSSK1
Procedure: as §1, §2, §3, §4

WNK1 = tested on: WNK1
Procedure: as §1, §2, §3, §4

YES1 = tested on: YES1
Procedure: as §1, §2, §3, §4

In the case of `Cc1cc(C(C#N)c2ccc(Cl)cc2)c(Cl)cc1NC(=O)c1cc(Cl)ccc1O` (stereo not shown) [ZT-1a, 5-chloro-N-(5-chloro-4-((4-chlorophenyl)(cyano)methyl)-2-methylphenyl)-2-hydroxybenzamide], the “% residual kinase activity” value (ASK1; 1 µM) is reported as 101±3%, the “% residual kinase activity” value (ASK1; 10 µM) is reported as 100±11% and the “% residual kinase activity” value (Aurora A; 1 µM) is reported as 73±19%. The “% residual kinase activity” value (Aurora A; 10 µM) was 65±1%, the “% residual kinase activity” value (Aurora B; 1 µM) was 119±6% and the “% residual kinase activity” value (Aurora B; 10 µM) was 92±15%. For the same molecule, the “% residual kinase activity” value (CAMKKb; 1 µM) was 115±10%, the “% residual kinase activity” value (CAMKKb; 10 µM) was 102±9% and the “% residual kinase activity” value (CDK2-Cyclin A; 1 µM) was 128±12%. For the same molecule, the “% residual kinase activity” value (CDK2-Cyclin A; 10 µM) was 125±6%, the “% residual kinase activity” value (EPH-B2; 1 µM) was 77±2% and the “% residual kinase activity” value (EPH-B2; 10 µM) was 81±8%. For the same molecule, the “% residual kinase activity” value (FGF-R1; 1 µM) was 93±6%, the “% residual kinase activity” value (FGF-R1; 10 µM) was 101±15% and the “% residual kinase activity” value (GSK3b; 1 µM) was 39±4%. For the same molecule, the “% residual kinase activity” value (GSK3b; 10 µM) was 38±12%, the “% residual kinase activity” value (IGF-1R; 1 µM) was 145±2% and the “% residual kinase activity” value (IGF-1R; 10 µM) was 123±3%. For the same molecule, the “% residual kinase activity” value (IKKe; 1 µM) was 87±13%, the “% residual kinase activity” value (IKKe; 10 µM) was 59±5% and the “% residual kinase activity” value (IRR; 1 µM) was 105±5%. For the same molecule, the “% residual kinase activity” value (IRR; 10 µM) was 95±4%, the “% residual kinase activity” value (IR; 1 µM) was 105±2% and the “% residual kinase activity” value (IR; 10 µM) was 86±13%. The “% residual kinase activity” value (JNK3; 1 µM) was 63±15%, the “% residual kinase activity” value (JNK3; 10 µM) was 60±10% and the “% residual kinase activity” value (LKB1; 1 µM) was 107±8%. The “% residual kinase activity” value (LKB1; 10 µM) was 115±11%, the “% residual kinase activity” value (MAPKAP-K3; 1 µM) was 96±26% and the “% residual kinase activity” value (MAPKAP-K3; 10 µM) was 72±8%. The “% residual kinase activity” value (MKK6; 1 µM) was 102±12%, the “% residual kinase activity” value (MKK6; 10 µM) was 82±16% and the “% residual kinase activity” value (MLK1; 1 µM) was 94±4%. For the same molecule, the “% residual kinase activity” value (MLK1; 10 µM) was 81±21%, the “% residual kinase activity” value (MSK1; 1 µM) was 114±6% and the “% residual kinase activity” value (MSK1; 10 µM) was 112±14%. For the same molecule, the “% residual kinase activity” value (NUAK1; 1 µM) was 52±7%, the “% residual kinase activity” value (NUAK1; 10 µM) was 61±16% and the “% residual kinase activity” value (PDK1; 1 µM) was 92±6%. For the same molecule, the “% residual kinase activity” value (PDK1; 10 µM) was 69±17%, the “% residual kinase activity” value (PIM1; 1 µM) was 108±19% and the “% residual kinase activity” value (PIM1; 10 µM) was 101±8%. For the same molecule, the “% residual kinase activity” value (PINK; 1 µM) was 101±13%, the “% residual kinase activity” value (PINK; 10 µM) was 59±4% and the “% residual kinase activity” value (SIK3; 1 µM) was 104±9%. The “% residual kinase activity” value (SIK3; 10 µM) was 88±0%, the “% residual kinase activity” value (TBK1; 1 µM) was 119±10% and the “% residual kinase activity” value (TBK1; 10 µM) was 94±3%. For the same molecule, the “% residual kinase activity” value (TESK1; 1 µM) was 109±3%, the “% residual kinase activity” value (TESK1; 10 µM) was 77±10% and the “% residual kinase activity” value (TGFBR1; 1 µM) was 63±9%. For the same molecule, the “% residual kinase activity” value (TGFBR1; 10 µM) was 77±5%, the “% residual kinase activity” value (TSSK1; 1 µM) was 99±2% and the “% residual kinase activity” value (TSSK1; 10 µM) was 74±6%. For the same molecule, the “% residual kinase activity” value (WNK1; 1 µM) was 125±17%, the “% residual kinase activity” value (WNK1; 10 µM) was 122±35% and the “% residual kinase activity” value (YES1; 1 µM) was 109±3%. For the same molecule, the “% residual kinase activity” value (YES1; 10 µM) was 98±7%.
